Values after ≈ are worked out from the molar mass of the structure shown.
How the values were obtained:
[1] = tested on: A549 cells; assay: MTT cytotoxicity assay, A549; type: cell-based; details: Homo sapiens
Experimental: (§1) The relative cytotoxic activity of 12-MTA against human tumor cells was measured by means of a MTT assay. Human cell lines, including H1299, PC3, K562, A549, DU145, and HL60 were used.

[2] = molecular target: T1, 5-lipoxygenase (Rattus norvegicus, UniProt P12527); assay: Inhibition of 5-lipoxygenase activity (5-HETE and LTB4 production, LC/MS/MS); type: cell-based; details: RBL-1 cells, 5 minutes at 37° C., then A23187 and arachidonic acid
T1 construct: endogenous in cells; host or cells: RBL-1 (rat leukemia) cells
T1 sequence (P12527 1-673): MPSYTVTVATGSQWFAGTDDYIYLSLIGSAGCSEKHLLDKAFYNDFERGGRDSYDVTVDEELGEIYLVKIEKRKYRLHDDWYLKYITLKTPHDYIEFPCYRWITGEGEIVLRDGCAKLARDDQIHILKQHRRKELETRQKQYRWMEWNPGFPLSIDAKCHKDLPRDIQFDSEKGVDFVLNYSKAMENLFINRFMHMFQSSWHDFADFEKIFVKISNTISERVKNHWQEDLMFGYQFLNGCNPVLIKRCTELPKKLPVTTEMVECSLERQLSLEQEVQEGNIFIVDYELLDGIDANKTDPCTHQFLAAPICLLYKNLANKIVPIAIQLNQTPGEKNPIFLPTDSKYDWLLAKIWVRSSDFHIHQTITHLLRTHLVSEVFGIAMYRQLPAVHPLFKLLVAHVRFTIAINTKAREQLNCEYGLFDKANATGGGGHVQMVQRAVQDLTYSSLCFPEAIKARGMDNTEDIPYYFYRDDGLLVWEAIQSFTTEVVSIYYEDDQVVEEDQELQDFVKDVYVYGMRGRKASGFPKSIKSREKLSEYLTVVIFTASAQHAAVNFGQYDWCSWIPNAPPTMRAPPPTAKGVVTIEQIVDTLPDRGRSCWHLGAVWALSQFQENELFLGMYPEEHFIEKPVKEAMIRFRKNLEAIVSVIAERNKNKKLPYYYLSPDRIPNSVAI
Experimental: (§2) 12-MTA in rat leukemia (RBL-1) cells were examined. Cells were treated with 12-MTA (5 to 100 μg/ml) for 5 minutes at 37° C. followed by addition of A23187 (1 mM) and arachidonic acid (125 μM). Then the eicosanoids were extracted with hexane:ethyl acetate and analyzed by Multiple Reaction Monitoring in a tandem mass spectrometer (LC/MS/MS). Among seven eicosanoid metabolites, including PGE2, LTB4, 5-, 8-, 11-, 12-, and 15-HETEs, reduced production of 5-HETE and LTB4 in 12-MTA treated cells was observed. […] The inhibitory activity of 12-MTA on production of 5-HETE and LTB4 was concentration-dependent. This study further confirmed that 12-MTA is a 5-lipoxygenase inhibitor. 12-MTA, at 100 μg/mL, inhibited production of 12-HETE by 25% […].

[3] = tested on: HL60 cells; assay: MTT cytotoxicity assay, HL60; type: cell-based; details: Homo sapiens, HL-60
Experimental: as §1

[4] = tested on: PPAR-γ; assay: PPAR-γ expression by immunoblot, PC3; type: cell-based, human; details: PC3 cells, 24.2 μg/ml, serum-free media, 24 hours; preliminary data
Experimental: (§3) Peroxisome proliferator-activated receptors (PPAR) represent a family of steroid hormone receptors in a superfamily mainly involved with lipid metabolism. Recently, high levels of PPAR-γ were reportedly expressed in prostate cancer tumor and activation of PPAR-γ was associated with nonapoptotic cell death induced by some PPAR-γ ligands. […] We have examined the effects of 12-MTA on activation of PPAR-γ in DU145 and PC3 cells. Cells were treated with 24.2 μg/ml of 12-MTA in serum-free media. After 24 hours, cells were harvested and expression of PPAR-γ was detected by immunoblot with or without blocking peptide.

[5] = tested on: K562 cells; assay: MTT cytotoxicity assay, K562; type: cell-based; details: Homo sapiens
Experimental: as §1

[6] = tested on: H1299 cells; assay: MTT cytotoxicity assay, H1299; type: cell-based; details: Homo sapiens, NCI-H1299
Experimental: as §1

[7] = tested on: PPAR-γ; assay: PPAR-γ expression by immunoblot, DU145; type: cell-based, human; details: DU145 cells, 24.2 μg/ml, serum-free media, 24 hours; preliminary data
Experimental: as §3

[8] = tested on: PC3 cells; assay: MTT cytotoxicity assay, PC3; type: cell-based; details: Homo sapiens, PC-3
Experimental: as §1

[9] = tested on: caspase 3 in PC3 cells; assay: Caspase 3 activation and PARP cleavage; type: cell-based, human; details: 24.2 μg/ml, 24 and 48 hours
Experimental: Caspases are a family of aspartate-specific cysteine proteases that are required for apoptosis. The most familiar substrate of caspase is PARP, which is involved with regulation of chromatin structure during differentiation and DNA repair. The native PARP protein (Mr, 116,000) is cleaved by caspase 3 or caspase 7 to yield lower molecular weight fragments. To confirm that the induction of apoptosis by 12-MTA involves activation of caspases, we treated PC3 cells with 24.2 μg/ml of 12-MTA and measured PARP cleavage and caspase 3 activation at 24 and 48 hours.

[10] = tested on: PC3 cells; assay: DNA fragmentation analysis (propidium iodide staining and FACS); type: cell-based, human; details: 18.15 μg/ml
Experimental: To measure apoptosis directly, PC3 cells were treated with various concentrations of 12-MTA. Cell death by apoptosis was quantified by propidium iodide staining and FACS analysis. This technique measures cells with fragmented DNA, which appear as a population with hypodiploid DNA content (FIG. 2). 12-MTA induced concentration-dependent DNA fragmentation in PC3 cells.

[11] = tested on: 12-lipoxygenase; assay: Inhibition of 12-HETE production in RBL-1 cells (LC/MS/MS); type: cell-based, rat; details: 100 μg/mL
Experimental: as §2

[12] = tested on: DU145 cells; assay: MTT cytotoxicity assay, DU145; type: cell-based; details: Homo sapiens, DU-145
Experimental: as §1

[13] = tested on: PC3 human prostate cancer cells; assay: Morphological changes by scanning electron microscopy; type: cell-based; details: 24.2 μg/ml in 0.1% DMSO, harvested 30', 1, 2, 4, 24 hours
Experimental: PC3 cells (5×10^5) were plated in 35 mm dishes. After 24 hours, cells were treated with 24.2 μg/ml of 12-MTA in 0.1% DMSO. The cells were harvested at 30′, 1, 2, 4 and 24 hours. Harvested cells were fixed with 2% paraformaldehyde plus 3% glutformaldehyde in 0.1% sodium cacodylate buffer, pH 7.3. Morphological changes were measured by scanning electron microscopy (SEM).

[14] = molecular target: T2, 5-lipoxygenase (Homo sapiens, UniProt P09917); assay: Activity based fractionation, 5-HETE inhibition (UV 235 nm); type: biochemical; details: preparative TLC spot at 1:100 dilution
T2 sequence (P09917 1-674): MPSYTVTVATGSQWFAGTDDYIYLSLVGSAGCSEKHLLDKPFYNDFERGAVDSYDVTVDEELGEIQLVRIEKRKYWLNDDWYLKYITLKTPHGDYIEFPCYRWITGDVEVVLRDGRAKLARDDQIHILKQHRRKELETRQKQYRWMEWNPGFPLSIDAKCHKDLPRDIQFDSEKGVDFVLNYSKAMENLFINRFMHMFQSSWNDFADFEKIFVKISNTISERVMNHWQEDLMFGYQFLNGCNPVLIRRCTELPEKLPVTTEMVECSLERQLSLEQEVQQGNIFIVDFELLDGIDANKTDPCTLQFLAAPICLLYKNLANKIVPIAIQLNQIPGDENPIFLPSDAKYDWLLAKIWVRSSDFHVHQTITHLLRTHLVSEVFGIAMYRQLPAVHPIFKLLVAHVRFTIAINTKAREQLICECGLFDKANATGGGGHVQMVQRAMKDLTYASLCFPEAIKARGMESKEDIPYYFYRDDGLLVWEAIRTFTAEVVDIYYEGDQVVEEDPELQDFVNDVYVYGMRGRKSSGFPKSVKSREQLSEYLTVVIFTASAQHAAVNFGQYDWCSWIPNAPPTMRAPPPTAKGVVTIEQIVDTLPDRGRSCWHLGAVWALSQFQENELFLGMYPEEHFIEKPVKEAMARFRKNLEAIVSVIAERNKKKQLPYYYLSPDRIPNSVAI
From the text: The method of isolation was by ‘activity based fractionation’ using 5- and 12-lipoxygenase inhibition as the guiding assay. Using chromatography, preparative HPLC and preparative TLC of the sea cucumber oil, and checking 5-HETE with detection with UV at 235 nm, one particular spot on the TLC inhibited 5-HETE by approximately 94% at a 1:100 dilution. (FIGS. 3 and 4) The effect of 12-MTA on 5-HETE inhibition was also concentration dependent. The identity of the particular inhibitory ‘spot’ from preparative TLC was later identified by GC/MS, MS and NMR analysis and was confirmed to be 12-methyltetradecanoic acid (12-MTA).

CCC(C)CCCCCCCCCCC(=O)O (stereo not drawn) [12-MTA, 12-methyltetradecanoic acid]
IC50 [1]: 21.8 µg/mL (≈ 89.9 µM) | IC50 [2]: ~103 µM | IC50 [3]: 20.6 µg/mL (≈ 84.9 µM) | expression of PPAR-γ [4]: only slightly increased | IC50 [5]: 33.1 µg/mL (≈ 137 µM) | IC50 [6]: 18.1 µg/mL (≈ 74.9 µM) | expression of PPAR-γ [7]: only slightly increased | IC50 [8]: 30.1 µg/mL (≈ 124 µM) | PARP cleavage [9]: prominent PARP cleavage | caspase 3 activation [9]: can activate caspase 3 | percent of apoptotic cells (fragmented DNA) [10]: 75% | inhibition of production of 12-HETE [11]: 25% | IC50 [12]: 30.2 µg/mL (≈ 125 µM) | Morphological (apoptotic) changes by SEM [13]: cells exhibited apoptotic changes after 1-hour of exposure | inhibition of 5-HETE [14]: approximately 94%

Reference: patent US6541519B2, “Methods and compositions for treating lipoxygenase-mediated disease states” (Coastside Bio Resources, priority 2000, dated 2003)
